Assays:
[1] = test system: Polygonum convolvulus (wild buckwheat, POLCO); experiment: Greenhouse postemergence trial POLCO; format: in vivo; conditions: POLCO; 140 g/ha alone
[2] = test system: Lolium multiflorum (Italian ryegrass, LOLMU); experiment: Greenhouse postemergence trial LOLMU; format: in vivo; conditions: LOLMU; 140 g/ha alone
Description: (§1) Seeds of the desired test plant species were planted in a 90:10% v/v (volume/volume) mixture of PRO-MIX® BX (Premier Tech Horticulture, Quakertown, PA, USA) and PROFILE® GREENS GRADE™ (Profile Products LLC, Buffalo Grove, IL, USA) planting mixture, which typically has a pH of 5.2 to 6.2 and an organic matter content of at least 50 percent, in plastic pots with a surface area of 103.2 square centimeters (cm^2). […] The plants were grown for 7-36 days (d) in a greenhouse with an approximate 14-hour (h) photo-period which was maintained at about 23° C. during the day and 22° C. during the night. Nutrients and water were added on a regular basis and supplemental lighting was provided with overhead metal halide 1000-Watt lamps as necessary. The plants were employed for testing when they reached the second or third true leaf stage.
(§2) Emulsifiable concentrates of each of each pyridine carboxylate herbicide (Compound A or Compound B) were prepared at 100 grams acid equivalent per liter (g ae/L). The emulsifiable concentrates also included a safener, cloquintocet-mexyl, at 120 grams active ingredient per liter (g ai/L), unless otherwise noted below. An aliquot of each emulsifiable concentrate was placed in a 25 mL glass vial and diluted with an aqueous mixture of 1.25% (v/v) ACTIROB® B esterified rapeseed oil (Bayer Crop Science, Research Triangle Park, NC, USA) or MSO® Concentrate with LECI-TECH® methylated soybean oil (Loveland Products, Loveland, CO, USA) to obtain concentrated stock solutions at the highest application rate for each herbicide, based upon a 12 milliliter (mL) application volume at a rate of 187 liters per hectare (L/ha). The concentrated stock solutions were further diluted with an aqueous mixture of 1.25% v/v ACTIROB® B or MSO® Concentrate with LECI-TECH® to obtain stock solutions at reduced application rates for each herbicide. Spray solutions of the herbicide combinations (Compound A or Compound B plus synthetic auxin herbicide or auxin transport inhibitor) were prepared by adding weighed amounts or aliquots of the synthetic auxin herbicide or auxin transport inhibitor to the stock solutions of Compound A or Compound B to form 12-mL spray solutions in two-way combinations.
(§3) The spray solutions were applied to the plant material with an overhead Mandel track sprayer equipped with 8002E nozzles calibrated to deliver 187 L/ha over an application area of 0.503 square meters (m^2) at a spray height of 18 inches (43 centimeters (cm)) above the average plant canopy. Control plants were sprayed in the same manner with the solvent blank. All pyridine carboxylate herbicide (component a) application rates are given as “g ae/ha” and all synthetic auxin herbicide or auxin transport inhibitor (component b) application rates are given as “g ai/ha.”
(§4) The treated plants and control plants were placed in a greenhouse as described above and watered by sub-irrigation to prevent wash-off of the test compounds. After 20-22 d, the condition of the test plants as compared with that of the control plants was determined visually and scored on a scale of 0 to 100 percent where 0 corresponds to no injury and 100 corresponds to complete kill.

[3] = test system: Glycine max (volunteer soybean, GLXMA); experiment: Greenhouse postemergence trial GLXMA; format: in vivo; conditions: GLXMA; 140 g/ha alone
Description: as §1, §2, §3, §4

[4] = test system: Avena fatua (wild oat, AVEFA); experiment: Greenhouse postemergence trial AVEFA; format: in vivo; conditions: AVEFA; 140 g/ha alone
Description: as §1
(§5) Emulsifiable concentrates of each of each pyridine carboxylate herbicide (Compound A or Compound B) were prepared at 100 grams acid equivalent per liter (g ae/L). The emulsifiable concentrates also included a safener, cloquintocet-mexyl, at 120 grams active ingredient per liter (g ai/L), unless otherwise noted below. An aliquot of each emulsifiable concentrate was placed in a 25 mL glass vial and diluted with an aqueous mixture of 1.25% (v/v) ACTIROB® B esterified rapeseed oil (Bayer Crop Science, Research Triangle Park, NC, USA) or MSO® Concentrate with LECI-TECH® methylated soybean oil (Loveland Products, Loveland, CO, USA) to obtain concentrated stock solutions at the highest application rate for each herbicide, based upon a 12 milliliter (mL) application volume at a rate of 187 liters per hectare (L/ha). The concentrated stock solutions were further diluted with an aqueous mixture of 1.25% v/v ACTIROB® B or MSO® Concentrate with LECI-TECH® to obtain stock solutions at reduced application rates for each herbicide. Spray solutions of the herbicide combinations (Compound A or Compound B plus synthetic auxin herbicide or auxin transport inhibitor) were prepared by adding weighed amounts or aliquots of the synthetic auxin herbicide or auxin transport inhibitor to the stock solutions of Compound A or Compound B to form 12-mL spray solutions in two-way combinations. […]
as §4

[5] = test system: Sorghum vulgare (grain sorghum, SORVU); experiment: Greenhouse postemergence trial SORVU; format: in vivo; conditions: SORVU; 140 g/ha alone
Description: as §1, §5, §4

[6] = test system: Alopecurus myosuroides (blackgrass, ALOMY); experiment: Greenhouse postemergence trial ALOMY; format: in vivo; conditions: ALOMY; 140 g/ha alone
Description: as §1, §5, §4

[7] = test system: Stellaria media (chickweed, STEME); experiment: Greenhouse postemergence trial STEME; format: in vivo; conditions: STEME; 140 g/ha alone
[8] = test system: Rumex obtusifolius (broad-leaf dock, RUMOB); experiment: Greenhouse postemergence trial RUMOB; format: in vivo; conditions: RUMOB; 140 g/ha alone
[9] = test system: Leptochloa chinensis (Chinese sprangletop, LEFCH); experiment: Greenhouse postemergence trial LEFCH; format: in vivo; conditions: LEFCH; 140 g/ha alone
Description: as §1, §5, §4

[10] = test system: Abutilon theophrasti (velvetleaf, ABUTH); experiment: Greenhouse postemergence trial ABUTH; format: in vivo; conditions: ABUTH; 140 g/ha alone
Description: as §1, §2, §3, §4

[11] = test system: Echinochloa crus-galli (barnyard grass, ECHCG); experiment: Greenhouse postemergence trial ECHCG; format: in vivo; conditions: ECHCG; 140 g/ha alone
Description: as §1, §2, §3, §4

[12] = test system: Kochia scoparia (kochia, KCHSC); experiment: Greenhouse postemergence trial KCHSC; format: in vivo; conditions: KCHSC; 140 g/ha alone
[13] = test system: Cirsium arvense (Canadian thistle, CIRAR); experiment: Greenhouse postemergence trial CIRAR; format: in vivo; conditions: CIRAR; 140 g/ha alone
[14] = test system: Helianthus annuus (common sunflower, HELAN); experiment: Greenhouse postemergence trial HELAN; format: in vivo; conditions: HELAN; 140 g/ha alone
Description: as §1, §2, §3, §4

[15] = test system: Digitaria sanguinalis (large crabgrass, DIGSA); experiment: Greenhouse postemergence trial DIGSA; format: in vivo; conditions: DIGSA; 140 g/ha alone
Description: as §1, §2, §3, §4

[16] = test system: Cyperus esculentus (nutsedge, CYPES); experiment: Greenhouse postemergence trial CYPES; format: in vivo; conditions: CYPES; 140 g/ha alone
Description: as §1, §5, §4

[17] = test system: Setaria faberi (giant foxtail, SETFA); experiment: Greenhouse postemergence trial SETFA; format: in vivo; conditions: SETFA; 140 g/ha alone
Description: as §1, §2, §3, §4

[18] = test system: Viola tricolor (wild pansy, VIOTR); experiment: Greenhouse postemergence trial VIOTR; conditions: VIOTR; 140 g/ha alone;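 also: greenhouse plants sprayed at second to third true leaf stage, injury rated visually after 20-22 d against solvent-blank sprayed controls, 0 meaning no injury and 100 complete kill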
[19] = test system: Ipomoea hederacea (ivyleaf morningglory, IPOHE); experiment: Greenhouse postemergence trial IPOHE; format: in vivo; conditions: IPOHE; 140 g/ha alone
[20] = test system: Brassica napus (winter rape, BRSNW); experiment: Greenhouse postemergence trial BRSNW; format: in vivo; conditions: Brassica napus, post-emergence, read-out: % visual injury Obs

O=C(O)c1cc(I)cc(I)c1I [2,3,5-TIBA]
% visual injury, Obs [1]: 0%
% visual injury, Obs [2]: 0%
% visual injury, Obs [3]: 40%
% visual injury, Obs [4]: 0%
% visual injury, Obs [5]: 0%
% visual injury, Obs [6]: 0%
% visual injury, Obs [7]: 0%
% visual injury, Obs [8]: 0%
% visual injury, Obs [9]: 0%
% visual injury, Obs [10]: 0%
% visual injury, Obs [11]: 0%
% visual injury, Obs [12]: 0%
% visual injury, Obs [13]: 0%
% visual injury, Obs [14]: 0%
% visual injury, Obs [15]: 0%
% visual injury, Obs [16]: 0%
% visual injury, Obs [17]: 0%
% visual injury, Obs [18]: 0%
% visual injury, Obs [19]: 0%
plant injury at 140 g/ha [20]: 0%

From patent US12568967B2, “Compositions comprising pyridine carboxylate herbicides with synthetic auxin herbicides or auxin transport inhibitors” (priority 2018, dated 2026)
